Reference: ChEMBL document CHEMBL4739717, “Methods of treating cartilage disorders through inhibition of clk and dyrk” (2020)

Columns and labels:
[1] = target: Dual specificity tyrosine-phosphorylation-regulated kinase 1A (Homo sapiens, UniProt Q13627); assay: Inhibition of recombinant DYRK1A (unknown origin) using Ser/Thr 18 peptide as substrate incubated for 1 hr in presence of ATP by FRET assay
[2] = Effect on Wnt signaling pathway in human SW480 cells harbouring TCF/LEF luciferase reporter gene and SP5-Luc reporter gene incubated for 36 to 48 hrs by luminescence assay; assay type: cell-based
[3] = Induction of chondrogenesis in human MSC assessed as incubated for 6 days by rhodamine B and Nile red staining based imaging analysis; assay type: functional; conditions: bmmsc
[4] = Induction of chondrogenesis in human MSC assessed as maximum activity at 100 nM incubated for 6 days by rhodamine B and Nile red staining based imaging analysis relative to control; assay type: functional; conditions: BMMSC, 144 h, time 6 day

SMILES | EC50 [1] [nM] | EC50 [2] [nM] | EC50 [3] [nM] | Emax at 0.1 µM [4] [%]
CC(C)CC(=O)Nc1cncc(-c2cnc3[nH]nc(-c4cc5c(-c6ccncc6)cccc5[nH]4)c3c2)c1 | 23 | 711 | 30 | 71.4
Cn1cc(-c2cc3c(-c4nc5c(-c6cccc(F)c6)nccc5[nH]4)n[nH]c3cn2)cn1 | 26 | 10 | 100 | 110
c1cncc(-c2cc3c(-c4nc5ccccc5[nH]4)n[nH]c3cn2)c1 | 72 | 20.1 | 30 | 80.5
O=C(Nc1cncc(-c2cnc3[nH]nc(-c4nc5c(-c6ccoc6)cncc5[nH]4)c3c2)c1)c1ccccc1 | 30 | 51 | 100 | 110
Cc1ccncc1-c1cc2c(-c3cc4cnccc4[nH]3)n[nH]c2cn1 | 11 | 389 | 10 | 61.4
CN(C)CCNc1cc(F)cc(-c2cccc3[nH]c(-c4n[nH]c5cnc(-c6cncc(N)c6)cc45)cc23)c1 | 23 | 407 | 100 | 180
CC(C)Nc1cncc(-c2cnc3[nH]nc(-c4nc5c(-c6cccc(F)c6)cncc5[nH]4)c3c2)c1 | 20 | 1.2 | 30 | 504
CCNCc1cncc(-c2cnc3[nH]nc(-c4cc5c(-c6ccccc6F)cncc5[nH]4)c3c2)c1 | 14 | 2300 | – | 37.3
c1cc2[nH]c(-c3n[nH]c4ccc(-c5cncc(CN6CCCCC6)c5)cc34)cc2c(N2CCCCC2)n1 | 32 | 4210 | – | 48.1
Cc1ccc(-c2cncc3[nH]c(-c4n[nH]c5cnc(-c6cncc(N)c6)cc45)nc23)s1 | 44 | 10.9 | 100 | 162
O=C(Nc1cncc(-c2ccc3[nH]nc(-c4nc5c(-c6ccc(Cl)s6)ccnc5[nH]4)c3n2)c1)C1CCC1 | 28 | 354 | 10 | 102
CC(C)(C)CC(=O)Nc1cncc(-c2ccc3[nH]nc(-c4cc5c(-c6ccoc6)ccnc5[nH]4)c3c2)c1 | 20 | 890 | – | 21.2
CCCC(=O)Nc1cncc(-c2cnc3[nH]nc(-c4nc5c(-c6ccoc6)cccc5[nH]4)c3c2)c1 | 25 | 63 | 100 | 111
CC(C)Nc1cncc(-c2ccc3[nH]nc(-c4cc5c(-c6cccnc6)cncc5[nH]4)c3c2)c1 | 21 | 670 | – | 41.9
CC(C)C(=O)Nc1cncc(-c2ccc3[nH]nc(-c4cc5c(-c6cccnc6)cncc5[nH]4)c3c2)c1 | 6 | 260 | – | 34.5
CN(C)Cc1cncc(-c2cnc3[nH]nc(-c4nc5c(-c6ccsc6)cncc5[nH]4)c3c2)c1 | 10 | 57 | – | 91.3
FC1(F)CCN(Cc2cncc(-c3ccc4[nH]nc(-c5nc6c(N7CCCCC7)cncc6[nH]5)c4c3)c2)C1 | 22 | 20 | – | 80.1
CC(C)Nc1cncc(-c2ccc3[nH]nc(-c4cc5c(-c6cccnc6)ccnc5[nH]4)c3n2)c1 | 25 | 255 | – | 47.2
O=C(Nc1cncc(-c2cnc3[nH]nc(-c4cc5cccnc5[nH]4)c3c2)c1)C1CCCCC1 | 11 | 1260 | – | 28.5
Nc1cncc(-c2cnc3[nH]nc(-c4cc5c(-c6ccccc6F)ccnc5[nH]4)c3c2)c1 | 59 | 745 | – | 27.6
Cc1cn(-c2cncc3[nH]c(-c4n[nH]c5ccc(-c6cncc(NC(=O)C7CCC7)c6)nc45)nc23)cn1 | 8 | > 10000 | – | 47.2
CCC(=O)Nc1cncc(-c2ccc3[nH]nc(-c4cc5c(-c6cccc(F)c6)cncc5[nH]4)c3c2)c1 | 27 | 45 | – | 33.5
FC1(F)CCN(Cc2cncc(-c3ccc4[nH]nc(-c5nc6c(-c7ccsc7)cncc6[nH]5)c4c3)c2)C1 | 15 | 1.8 | – | 81.3
Nc1cncc(-c2ccc3[nH]nc(-c4cc5c(-c6ccccn6)ccnc5[nH]4)c3c2)c1 | 13 | 22.4 | – | 46.1
CC(C)CC(=O)Nc1cncc(-c2cc3c(-c4cc5cccnc5[nH]4)n[nH]c3cn2)c1 | 13 | > 10000 | – | 40.4
FC1(F)CCN(Cc2cncc(-c3cnc4[nH]nc(-c5cc6c(-c7ccncc7)cccc6[nH]5)c4c3)c2)C1 | 76 | 708 | – | 29.2
